# Laboratory results reported in patent publication US20100099897A1, “STABLE ANHYDROUS CRYSTALLINE DOCETAXEL AND METHOD FOR THE PREPARATION THEREOF” (HANMI PHARM. CO., LTD., priority 2007, published 2010).
# Assays:
# [1] = Stability under a high temperature/humidity condition (HPLC purity after aging); format: physicochemical; conditions: for Purity after 1 week / Purity after 2 weeks / Purity after 4 weeks / Initial purity / Purity after 8 weeks: HPLC; for Initial purity: before aging
# Experimental: The long-term storage stabilities of anhydrous crystalline forms of docetaxel prepared in Examples 1, 4, 5, and 6, respectively were compared with that of docetaxel trihydrate prepared according to the method of U.S. Pat. No. 6,022,985 by subjecting sample thereof to aging under a high temperature/humidity condition (60±2° C.; 75±5% relative humidity). The amounts of the original compound in each sample after 1, 2, 4 and 8 weeks were determined by high performance liquid chromatography (HPLC).
# [2] = Storage for 7 days at 40° C. under a relative humidity of 25% to 50%; format: physicochemical; conditions: comparable condition: 7 days, relative humidity 25% to 50%
# [3] = 60±2° C., 75±5% relative humidity
"Purity after 1 week [1, 3]","Purity after 2 weeks [1, 3]","Purity after 4 weeks [1, 3]","Storage stability under a high temperature/humidity condition (in words) ([1]; 60±2° C., 75±5% relative humidity, up to 8 weeks)",Initial purity [1],Dehydration during storage [2],"Purity after 8 weeks [1, 3]",SMILES
99.7%,99.7%,99.6%,–,99.7%,–,99.6%,"CC(=O)O[C@@]12CO[C@@H]1C[C@H](O)[C@@]1(C)C(=O)[C@H](O)C3=C(C)[C@@H](OC(=O)[C@H](O)[C@@H](NC(=O)OC(C)(C)C)c4ccccc4)C[C@@](O)([C@@H](OC(=O)c4ccccc4)[C@H]21)C3(C)C [Example 5, docetaxel]"
99.7%,99.7%,99.6%,–,99.7%,–,99.5%,"CC(=O)O[C@@]12CO[C@@H]1C[C@H](O)[C@@]1(C)C(=O)[C@H](O)C3=C(C)[C@@H](OC(=O)[C@H](O)[C@@H](NC(=O)OC(C)(C)C)c4ccccc4)C[C@@](O)([C@@H](OC(=O)c4ccccc4)[C@H]21)C3(C)C [Example 6, docetaxel]"

# The next lines start with the compound.
SMILES,"Purity after 1 week [1, 3]","Purity after 2 weeks [1, 3]","Purity after 4 weeks [1, 3]","Storage stability under a high temperature/humidity condition (in words) ([1]; 60±2° C., 75±5% relative humidity, up to 8 weeks)",Initial purity [1],Dehydration during storage [2],"Purity after 8 weeks [1, 3]"
"CC(=O)O[C@@]12CO[C@@H]1C[C@H](O)[C@@]1(C)C(=O)[C@H](O)C3=C(C)[C@@H](OC(=O)[C@H](O)[C@@H](NC(=O)OC(C)(C)C)c4ccccc4)C[C@@](O)([C@@H](OC(=O)c4ccccc4)[C@H]21)C3(C)C [Docetaxel trihydrate, docetaxel trihydrate, reference compound]",99.3%,99.0%,98.7%,rapid degradation,99.4%,at least 50%,–
"CC(=O)O[C@@]12CO[C@@H]1C[C@H](O)[C@@]1(C)C(=O)[C@H](O)C3=C(C)[C@@H](OC(=O)[C@H](O)[C@@H](NC(=O)OC(C)(C)C)c4ccccc4)C[C@@](O)([C@@H](OC(=O)c4ccccc4)[C@H]21)C3(C)C [Example 1, docetaxel]",99.8%,99.8%,99.7%,–,99.8%,–,99.6%
"CC(=O)O[C@@]12CO[C@@H]1C[C@H](O)[C@@]1(C)C(=O)[C@H](O)C3=C(C)[C@@H](OC(=O)[C@H](O)[C@@H](NC(=O)OC(C)(C)C)c4ccccc4)C[C@@](O)([C@@H](OC(=O)c4ccccc4)[C@H]21)C3(C)C [Example 4, docetaxel]",99.8%,99.7%,99.6%,–,99.8%,–,99.5%
